{
  "source": "patent US20250263416A1",
  "about": "“SPPL2a INHIBITORS” (Incyte Corporation, priority 2024, published 2025)",
  "key": {"MoDCs": {"system": "MoDCs", "assay": "DC-maturation assay (monocyte-derived dendritic cells from human PBMCs)", "assay_type": "cell-based", "conditions": "24 h", "experimental": "Dendritic cells are crucial players in the antigen presentation process and inflammation. […] To validate the functional relevance of SPPL2a inhibitor, a DC-maturation assay was utilized. Human PBMCs were isolated from fresh blood using Histoplaque gradients and plated overnight at 37° C. to allow monocytes to adhere. Non-adherent cells were washed off the following day and DC-differentiation media containing GM-CSF and IL-4 was added and incubated for 5 d. Immature MoDCs were separated and washed. A cocktail of maturation media with SPPL2a inhibitor (at indicated concentrations) was added to the wells and cells were incubated for 24 h. Supernatants were collected and processed to measure TNFα and IL-12 by ELISA. All data is presented as mean+SEM. For comparison of more than two groups, ANOVA was used. All statistical analysis was performed using GraphPad Prism™ 10."}, "[1]": {"system": "Imiquimod (IMQ)-induced psoriasis mouse model", "assay": "Imiquimod (IMQ)-induced psoriasis mouse model", "assay_type": "in vivo, BALB/c female mice", "conditions": "15 mg/kg PO BID", "experimental": "A comparative study was performed to evaluate the efficacy of the deuterated-inhibitor Example 1 to Example A in the mouse model of psoriasis. Briefly, BALB/c female mice (7-8 week age) were shaved on the dorsal skin and 62.5 mg of IMQ cream was applied daily until day 9. Simultaneously, 15 mg of IMQ cream was applied on one ear daily until day 9. Example 1 and Example A were given orally (PO) at 15 mg/kg, BID. Mice were monitored and clinical signs of psoriasis were recorded (PSI score), both on the dorsal skin (erythema, scaling & thickness) and on the IMQ-applied ear (thickness). All data is presented as mean+SEM. For comparison of more than two groups, ANOVA was used. Pearson product moment correlation was used to test for correlations. All statistical analysis was performed using GraphPad Prism™ 10."}, "[2]": {"assay": "In vivo epimerization and PK, statements covering all three preclinical models", "set-up": "species or system Sprague Dawley rats, beagle dogs, cynomolgus monkeys", "experimental": "These factors may lead to accumulation and potenial toxicity. The effect on epimerization by substitution at the chiral carbon was tested by comparing Example A, Example 1, and Example 29 in the following preclinical in vivo pharmacokinetic models: Sprague Dawley rats, beagle dogs, and cynomolgus monkeys.\nTwo groups of male Sprague Dawley rats (n=3 each) received either a single 10 mg/kg PO dose of Example A or Example 1 in a vehicle consisting of 0.5% methylcellulose in water. Blood samples were collected at 0.25, 0.5, 1, 2, 4, and 6 hours postdose.\nMale Sprague Dawley rats (n=3 each) received a single 3 mg/kg PO dose of Example 29 in a vehicle consisting of 5% dimethylacetamide (DMAC) in 50 mM citrate buffer w/0.5% methylcellulose. Blood samples were collected at predose, 0.25, 0.5, 1, 2, 4, 6, 8, 12, and 24 hours postdose.\nThree groups of male cynomolgus monkeys (n=2 each) received either a single 3 mg/kg PO dose of Example A, Example 1, or Example 29 in a vehicle consisting of 5% dimethylacetamide (DMAC) in 50 mM citrate buffer w/0.5% methylcellulose. Blood samples were collected at predose, 0.25, 0.5, 1, 2, 3, 4, 6, 8, 12, and 24 hours postdose.\nThree groups of male beagle dogs (n=2 each) received either a single 3 mg/kg PO dose of Example A, Example 1, or Example 29 in a vehicle consisting of 5% dimethylacetamide (DMAC) in 50 mM citrate buffer w/0.5% methylcellulose. Blood samples were collected at predose, 0.25, 0.5, 1, 2, 3, 4, 6, 8, 12, 24 and 48 hours postdose.\nAll blood samples were collected using EDTA as the anticoagulant and centrifuged to obtain plasma. Plasma concentrations of Example A, Example 1, and their respective diastereomers were determined under non-GLP conditions using standard reverse phase LC-MS/MS bioanalytical methods. The individual plasma concentration-time data was used to determine the area under the curve (AUC) values using GraphPad Prism (v9.3.1)."}, "[3]": {"system": "Collagen-Induced Arthritis (CIA) mouse model", "assay": "Collagen-induced arthritis (CIA) mouse model", "assay_type": "in vivo, DBA-1 mice", "conditions": "50 mg/kg dose, compared to the vehicle", "excerpt": "Female DBA-1 mice (8-9 weeks old) were used in the CIA mouse model. This model is widely used to evaluate efficacy of immunomodulatory drugs on autoimmune diseases, such as arthritis. DBA/1 mice develop collagen-induced arthritis (CIA) after immunization with bovine type II collagen emulsified in complete Freund's adjuvant (CFA), followed by a booster dose 21 days later. Both the immunizations were given subcutaneously, approximately 25 mm from the base of the tail on opposite sides. Immunizations were performed under a short duration isoflurane anesthesia. Mice were evaluated for the disease progression up to 45 days. […] Statistical significance was determined using Two-way ANOVA with multiple comparison tests to compare all groups to the vehicle."}},
  "note": "Entries after “also recorded” stand apart in the source; their conditions may differ.",
  "data": [
    {"smiles": "CNC(=O)c1nc(C)c(C(=O)NC[C@@H](C)C(=O)N[C@@H]2C(=O)N3CCCN3Cc3ccccc32)s1", "note": "[Example A, N^2,4-dimethyl-N^5—((R)-2-methyl-3-oxo-3-(((S)-11-oxo-2,3,10,11-tetrahydro-1H,5H-benzo[d]pyrazolo[1,2-a][1,2]diazepin-10-yl)amino)propyl)thiazole-2,5-dicarboxamide]", "values": [
      {"measurement": "IL-12 secretion", "setting": "MoDCs; MoDC supernatants, ELISA", "value": "significantly decreased"},
      {"measurement": "TNFα secretion", "setting": "MoDCs; MoDC supernatants, ELISA", "value": "significantly decreased"},
      {"measurement": "MoDC maturation", "setting": "MoDCs; compared to the stimulation only condition", "value": "significantly decreased"},
      {"measurement": "dorsal PSI scores", "setting": "[1]", "value": "alleviate"},
      {"measurement": "ear thickness measurements", "setting": "[1]", "value": "alleviate"},
      {"measurement": "clinical signs of psoriasis disease", "setting": "[1]; compared to vehicle group", "value": "significantly reduced"},
      {"measurement": "Mouse IL-12 level in plasma", "setting": "[1]; terminal day", "value": "significant reduction"},
      {"measurement": "Mouse TNFα level in plasma", "setting": "[1]; terminal day", "value": "significant reduction"},
      {"measurement": "in vivo epimerization at the chiral carbon in the 7-membered ring", "setting": "[2]; rat, monkey and dog models, PO", "value": "exhibits epimerization in vivo; also recorded: observed in all three models"},
      {"measurement": "exposures and PK (other than epimerization) across species", "setting": "[2]; rats, monkeys, dogs", "value": "consistent"},
      {"measurement": "clinical signs of CIA", "setting": "[3]", "value": "significantly reduced"}
    ]}
  ]
}
